Experimental findings from US12286428B2 (BRISTOL-MYERS SQUIBB COMPANY, priority 2019, dated 2025) are described below.

Molecules are shown by their SMILES. pIC50: −log10 of the molar value.

In assay [1] the test system is Human whole blood, IL-6 levels after TLR2 agonist lipoteichoic acid. Nature of the assay: IRAK4 Whole Blood Assay. The format is cell-based. The note with it: compounds 60 minutes at 37° C., lipoteichoic acid 10 μg/mL for 5 hours. How it is done: IRAK4 Whole Blood Assay Human whole blood containing the anti-coagulant ACD-A was plated in 384-well plate (25 μL/well) and incubated with compounds for 60 minutes at 37° C. in a 5% CO2 incubator. The blood was stimulated with a TLR2 agonist, 10 μg/mL final concentration of lipoteichoic acid (Invivogen, San Diego, CA) in 25 μL RPMI (Gibco) for 5 hours in a 5% CO2 incubator. At the end of the incubation, plates were centrifuged at 2300 rpm for 5 minutes. Supernatants were harvested and analyzed for IL-6 levels by Flow Cytometry beads assay (BD Biosciences, San Jose, CA).

Another assay deals with T1, IRAK4 (Homo sapiens, UniProt Q9NWZ3).
T1 sequence (Q9NWZ3 1-460): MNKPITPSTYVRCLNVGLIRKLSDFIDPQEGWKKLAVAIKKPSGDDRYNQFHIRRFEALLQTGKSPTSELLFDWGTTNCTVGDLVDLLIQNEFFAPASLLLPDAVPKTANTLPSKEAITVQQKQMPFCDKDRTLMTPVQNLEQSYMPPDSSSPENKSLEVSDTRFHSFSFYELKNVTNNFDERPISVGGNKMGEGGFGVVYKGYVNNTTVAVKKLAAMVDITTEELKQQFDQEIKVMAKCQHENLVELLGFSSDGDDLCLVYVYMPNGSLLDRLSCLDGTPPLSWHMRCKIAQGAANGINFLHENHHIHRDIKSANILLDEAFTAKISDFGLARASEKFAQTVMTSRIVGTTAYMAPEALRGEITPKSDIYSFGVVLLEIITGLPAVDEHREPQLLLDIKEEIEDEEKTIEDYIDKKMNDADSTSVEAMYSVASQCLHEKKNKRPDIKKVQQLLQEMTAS
Nature of the assay: IRAK4 Inhibition Assay. The format is biochemical. The note with it: ATP 500 μM, IRAK4 0.6 nM, 60 min room temperature, Caliper LABCHIP 3000. On the procedure:
The assays were performed in U-bottom 384-well plates. […] The reaction was initiated by the combination of IRAK4 with substrates and test compounds. The reaction mixture was incubated at room temperature for 60 min. and terminated by adding 45 μL of 35 mM EDTA to each sample. The reaction mixture was analyzed on the Caliper LABCHIP® 3000 (Caliper, Hopkinton, MA) by electrophoretic separation of the fluorescent substrate and phosphorylated product. […] The final concentrations of reagents in the assays are ATP, 500 μM; FL-[…] peptide 1.5 μM; IRAK4, 0.6 nM; and DMSO, 1.6%.

[2] abbreviates: FL-IPTSPITTTYFFFKKK peptide […].

For the molecule `CC[C@H]1[C@@H](COc2nccc3cc(C(N)=O)c4nccn4c23)NC(=O)C1(F)F` [Example 20, 1-(((2S,3S)-3-ethyl-4,4-difluoro-5-oxopyrrolidin-2-yl)methoxy)imidazo[1,2-a][1,7]naphthyridine-6-carboxamide], the results for the pIC50 (in assay [1]; at IRAK4 (setting [2])) were 6.80 and 8.06, respectively.

Consider `CC[C@H]1[C@@H](COc2nccc3cc(C(N)=O)c4nc(C)cn4c23)NC(=O)C1(F)F` [Example 21, 1-(((2S,3S)-3-ethyl-4,4-difluoro-5-oxopyrrolidin-2-yl)methoxy)-8-methylimidazo[1,2-a][1,7]naphthyridine-6-carboxamide], for which the pIC50 in assay [1] is 6.27; at IRAK4 (setting [2]) it was 7.97.

Regarding `CC[C@@H]1OC(=O)N[C@@H]1COc1nccc2cc(C(N)=O)c3nccn3c12` [Example 22, 1-(((4R,5S)-5-ethyl-2-oxooxazolidin-4-yl)methoxy)imidazo[1,2-a][1,7]naphthyridine-6-carboxamide], the negative-log IC50 (pIC50) was 5.32 in assay [1] and 8.68 at IRAK4 (setting [2]).

With `CC[C@@H]1[C@H](F)C(=O)N[C@@H]1COc1cccc2cc(C(N)=O)n3nccc3c12` [Example 34, 10-(((2S,3S,4S)-3-ethyl-4-fluoro-5-oxopyrrolidin-2-yl)methoxy)pyrazolo[5,1-a]isoquinoline-5-carboxamide], the pIC50 is 6.55 in assay [1] and 9.05 on IRAK4 (setting [2]).

With `CC[C@@H]1CC(=O)N[C@@H]1COc1cccc2cc(C(N)=O)n3nccc3c12` [Example 35, 10-(((2S,3R)-3-ethyl-5-oxopyrrolidin-2-yl)methoxy)pyrazolo[5,1-a]isoquinoline-5-carboxamide], the negative logarithm of the IC50 (pIC50) in assay [1] was 5.78; on IRAK4 (setting [2]), 8.59.

In the case of `CC[C@@H]1[C@H](F)C(=O)N[C@@H]1COc1nccc2cc(C(N)=O)n3nccc3c12` [Example 36, 1-(((2S,3S,4S)-3-ethyl-4-fluoro-5-oxopyrrolidin-2-yl)methoxy)pyrazolo[5,1-a][2,7]naphthyridine-6-carboxamide], the results for the pIC50 (in assay [1]; on IRAK4 (setting [2])) were 6.80 and 9.15, respectively.

Take `CC[C@@H]1CC(=O)N[C@@H]1COc1cccc2cc(C(N)=O)c3ncnn3c12` [Example 37, 9-(((2S,3R)-3-ethyl-5-oxopyrrolidin-2-yl)methoxy)-[1,2,4]triazolo[1,5-a]quinoline-4-carboxamide]: the values for the pIC50 (in assay [1]; on IRAK4 (setting [2])) were 6.23 and 8.47, respectively.

For `CC[C@H]1[C@@H](COc2cccc3cc(C(N)=O)c4ncnn4c23)NC(=O)C1(F)F` [Example 39, 9-(((2S,3S)-3-ethyl-4,4-difluoro-5-oxopyrrolidin-2-yl)methoxy)-[1,2,4]triazolo[1,5-a]quinoline-4-carboxamide], the values for the pIC50 (in assay [1]; at IRAK4 (setting [2])) were 7.11 and 7.80, respectively.

Consider `CC[C@@H]1CC(=O)N[C@@H]1COc1cccc2cc(C(N)=O)c3nnnn3c12` [Example 44, 9-(((2S,3R)-3-ethyl-5-oxopyrrolidin-2-yl)methoxy)tetrazolo[1,5-a]quinoline-4-carboxamide], for which the pIC50 in assay [1] was 5.99; at IRAK4 (setting [2]) it was 8.02.

Turning to `CC[C@@H]1CC(=O)N[C@@H]1COc1nccc2cc(C(N)=O)c3ncnn3c12` [Example 46, 9-(((2S,3R)-3-ethyl-5-oxopyrrolidin-2-yl)methoxy)-[1,2,4]triazolo[1,5-a][1,7]naphthyridine-4-carboxamide], the figures for the pIC50 (in assay [1]; on IRAK4 (FL-[…] peptide 1.5 μM)) were 5.97 and 8.01, respectively.

Consider `CC[C@H]1[C@@H](COc2nccc3cc(C(N)=O)c4ncnn4c23)NC(=O)C1(F)F` [Example 48, 9-(((2S,3S)-3-ethyl-4,4-difluoro-5-oxopyrrolidin-2-yl)methoxy)-[1,2,4]triazolo[1,5-a][1,7]naphthyridine-4-carboxamide], for which the values for the negative-log IC50 (pIC50) (in assay [1]; at IRAK4 (setting [2])) were 5.65 and 7.77, respectively.

Regarding `CC[C@@H]1CC(=O)N[C@@H]1COc1nccc2cc(C(N)=O)c3nc(C)nn3c12` [Example 49, 9-(((2S,3R)-3-ethyl-5-oxopyrrolidin-2-yl)methoxy)-2-methyl-[1,2,4]triazolo[1,5-a][1,7]naphthyridine-4-carboxamide], the figures for the pIC50 (in assay [1]; at IRAK4 (setting [2])) were 5.70 and 7.54, respectively.

As for `CC[C@@H]1CC(=O)N[C@@H]1COc1nccc2cc(C(N)=O)c3c(c12)CCO3` [Example 54, 1-(((2S,3R)-3-ethyl-5-oxopyrrolidin-2-yl)methoxy)-8,9-dihydrofuro[2,3-h]isoquinoline-6-carboxamide], the pIC50 in assay [1] is 5.96; at IRAK4 (setting [2]) it was 7.87.

In the case of `CC[C@@H]1CC(=O)N[C@@H]1COc1nccc2cc(C(N)=O)c3ncccc3c12` [Example 55, 1-(((2S,3R)-3-ethyl-5-oxopyrrolidin-2-yl)methoxy)-2,7-phenanthroline-6-carboxamide], the figures for the negative-log IC50 (pIC50) (in assay [1]; on IRAK4 (setting [2])) were 6.06 and 7.82, respectively.

For `CC[C@@H]1[C@H](F)C(=O)N[C@@H]1COc1nccc2cc(C(N)=O)c3ncccc3c12` [Example 56, 1-(((2S,3S,4S)-3-ethyl-4-fluoro-5-oxopyrrolidin-2-yl)methoxy)-2,7-phenanthroline-6-carboxamide], the figures for the pIC50 (in assay [1]; at IRAK4 (setting [2])) were 5.67 and 8.55, respectively.

For the molecule `CC[C@@H]1CC(=O)N[C@@H]1COC1=CC(F)=CC2C=C(C(N)=O)c3nccn3C12` (stereo partly drawn) [Example 57, 9-(((2S,3R)-3-ethyl-5-oxopyrrolidin-2-yl)methoxy)-7-fluoro-5a,9a-dihydroimidazo[1,2-a]quinoline-4-carboxamide], the pIC50 in assay [1] was 5.84; on IRAK4 (setting [2]), 8.01.

Regarding `CC[C@@H]1[C@H](F)C(=O)N[C@@H]1COC1=CC(F)=CC2C=C(C(N)=O)c3nccn3C12` (stereo partly drawn) [Example 58, 9-(((2S,3S,4S)-3-ethyl-4-fluoro-5-oxopyrrolidin-2-yl)methoxy)-7-fluoro-5a,9a-dihydroimidazo[1,2-a]quinoline-4-carboxamide], the negative-log IC50 (pIC50) in assay [1] was 5.37; at IRAK4 (setting [2]), 7.81.

Consider `CC[C@@H]1[C@H](F)C(=O)N[C@@H]1COC1=CC=CC2C=C(C(N)=O)n3nc(C)cc3C12` (stereo partly drawn) [Example 62, 10-(((2S,3S,4S)-3-ethyl-4-fluoro-5-oxopyrrolidin-2-yl)methoxy)-2-methyl-6a,10a-dihydropyrazolo[5,1-a]isoquinoline-5-carboxamide], for which the pIC50 was 5.60 in assay [1] and 8.64 at IRAK4 (setting [2]).
